Data as given in US12187705B2, “Heteroaryl-triazole and heteroaryl-tetrazole compounds as pesticides” (Bayer Aktiengesellschaft, priority 2018, dated 2025).

Assays:
Type in all cases: in vivo
Ctenocephalides felis [1] = assay: Ctenocephalides felis in-vitro contact test adult cat flea; settings: 5 μg/cm^2 (=500 g/ha), after 48 hours; for pest or weed control at 5 µg/cm2, 5 µg/cm2: Ctenocephalides felis, read-out: efficacy (fleas dead or moribund)
Summary of the method: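 Compound in acetone was coated on glass tube walls, giving 5 μg/cm^2 at 900 ppm. 5-10 adult cat fleas were held at room temperature for 48 h, then heat-challenged at 45-50° C. Fleas immotile or uncoordinated were scored dead/moribund, expressed as % efficacy.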

Rhipicephalus sanguineus = Rhipicephalus sanguineus in-vitro contact test with adult brown dog ticks; settings: 5 μg/cm^2 (=500 g/ha), after 48 hours
Experimental: Rhipicephalus sanguineus—In-Vitro Contact Test with Adult Brown Dog Ticks
9 mg compound is solved in 1 ml acetone and diluted with acetone to the desired concentration. 250 μl of the test solution is filled in 25 ml glass test tubes and homogeneously distributed on the inner walls by rotation and tilting on a shaking device (2 h at 30 rpm). With a compound concentration of 900 ppm, an inner surface of 44.7 cm^2 and a homogeneous distribution, a dose of 5 μg/cm^2 is achieved.
After the solvent has evaporated, each test tube is filled with 5-10 adult brown dog ticks (Rhipicephalus sanguineus), closed with a perforated lid and incubated in a lying position at room temperature and relative humidity. After 48 hours efficacy is determined. The ticks are patted on the ground of the tubes and are incubated on a heating plate at 45-50° C. for at most 5 minutes. Immotile or uncoordinated moving ticks, which are not able to escape the heat by climbing upwards, are marked as dead or moribund.
An efficacy of 100% means all ticks are dead or moribund; 0% means no ticks are dead or moribund.

Boophilus microplus = Boophilus microplus injection test; settings: 20 μg/animal, egg deposition after 7 days; for pest or weed control at 0.02 mg: Rhipicephalus microplus, 168 h, read-out: efficacy (infertile eggs)
Summary of the method: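 Engorged adult female ticks, five per dose, received 1 μl of compound in DMSO injected into the abdomen and were kept in a climate chamber. Fertile egg deposition was checked after 7 days, with eggs of unclear fertility held until hatching at about 42 days. Efficacy 100% = all eggs infertile, 0% = all fertile.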

Diabrotica balteata = Diabrotica balteata spray test; settings: 160 μg/well, wheat seeds, after 7 days; for pest or weed control at 160 µg/disc, 160 µg/well: Diabrotica balteata, 168 h, read-out: efficacy (seedlings grown)
Summary of the method: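 Wheat seeds germinated 1 day on agar were sprayed with compound diluted in water with 1000 ppm emulsifier, then infested with 10-20 Diabrotica balteata larvae. Efficacy in % scored after 7 days: 100% = seedlings grown as untreated, uninfected control; 0% = no seedlings grown.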

Nilaparvata lugens = Nilaparvata lugens spray test; settings: for mortality at 500 g/ha: Nilaparvata lugens, in Oryza sativa, 96 h
Experimental: Nilaparvata lugens—Spray Test
(§1) To produce a suitable preparation of active compound, 1 part by weight of active compound is mixed with the stated amount of solvents and is diluted with water, containing an emulsifier concentration of 1000 ppm, to the desired concentration. Further test concentrations are prepared by dilution with emulsifier containing water.
Rice plants (Oryza sativa) are sprayed with a preparation of the active ingredient of the desired concentration and the plants are infested with the brown planthopper (Nilaparvata lugens).
After 4 days mortality in % is determined. 100% means all planthoppers have been killed and 0% means none of the planthoppers have been killed.

Ctenocephalides felis [2] = assay: Ctenocephalides felis oral test; settings: Ctenocephalides felis, in Bos taurus, po, 48 h
Summary of the method: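 About 20 adult unfed fleas fed through parafilm on cattle blood containing compound (DMSO concentrate diluted in blood); blood held at 37° C., fleas at room temperature. Mortality in % scored after 2 days (100% = all killed).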

Myzus persicae [3] = assay: Myzus persicae oral test; settings: 120 h
Summary of the method: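 Feeding test: compound diluted in water was combined with IPL41 insect medium (33%+15% sugar) under a parafilm seal. A mixed population of green peach aphids fed through the membrane. Mortality (%) was scored after 5 days.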

Nezara viridula = Nezara viridula spray test; settings: in Hordeum vulgare, 96 h
Summary of the method: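 Barley plants infested with stink bug larvae were sprayed with compound diluted in water containing 1000 ppm emulsifier. Mortality (%) was scored after 4 days, 100% meaning all bugs killed.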

Phaedon cochleariae = Phaedon cochleariae spray test; settings: foliar, 168 h, Chinese cabbage leaf disks, after 7 days
Experimental: Phaedon cochleariae—Spray Test
as §1
Chinese cabbage (Brassica pekinensis) leaf disks are sprayed with a preparation of the active ingredient of the desired concentration. Once dry, the leaf disks are infested with mustard beetle larvae (Phaedon cochleariae).
After 7 days mortality in % is determined. 100% means all beetle larvae have been killed and 0% means none of the beetle larvae have been killed.

[4] = system: Aedes aegypti strain MONHEIM; assay: Aedes aegypti test (AEDSAE surface treatment & contact assay); settings: 24 hours after contact, read-out: efficacy (mortality); for mortality at 20 mg/m2: surface concentration 20 mg/m^2, 30 minutes exposure
Summary of the method: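 Compound dissolved in acetone (2 mg/ml) with 2000 ppm rapeseed oil methyl ester and dried onto a glazed tile. Adult mosquitoes held on the treated surface for 30 minutes exposure. Percent mortality scored 24 hours after contact.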

[5] = system: Culex quinquefasciatus strain P00; assay: Culex quinquefasciatus test (CULXFA surface treatment & contact assay); settings: 24 hours after contact, read-out: efficacy (mortality); for mortality at 20 mg/m2: surface concentration 20 mg/m^2, 30 minutes exposure
Summary of the method: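 Compound dissolved in acetone (2 mg/ml) with 2000 ppm rapeseed oil methyl ester, applied to glazed tile and dried. Adult strain P00 mosquitoes exposed to the surface for 30 minutes. Percent mortality scored 24 hours after contact.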

[6] = system: Anopheles funestus strain FUMOZ-R; assay: Anopheles funestus test (ANPHFU surface treatment & contact assay); settings: 24 hours after contact, read-out: efficacy (mortality); for mortality at 4 mg/m2: surface concentration 4 mg/m^2, 30 minutes exposure; for mortality at 20 mg/m2: surface concentration 20 mg/m^2, 30 minutes exposure
Experimental: Anopheles funestus Test (ANPHFU Surface Treatment & Contact Assay)
(§2) Solvent: Aceton+2000 ppm rapeseed oil methyl ester (RME)
(§3) In order to produce a sufficient, active ingredient containing solution it is necessary to solve the test-compound in the solvent-mix (Acetone at 2 mg/ml/RME 2000 ppm). This solution is pipetted onto a glazed tile and after evaporation of the Acetone, adult mosquitoes of the species Anopheles funestus strain FUMOZ-R (Hunt et al., Med Vet Entomol. 2005 September; 19(3):271-5) are placed onto the dried surface. The exposure time is 30 minutes.
(§4) Mortality in percent (%) is determined 24 hours after contact to the treated surface. 100% mortality means that all test-insects are dead, whereas 0% means that not a single insect died.

[7] = system: Musca domestica strain WHO-N; assay: Musca domestica test (MUSCDO surface treatment & contact assay); settings: 24 hours after contact, read-out: efficacy (mortality); for mortality at 20 mg/m2: surface concentration 20 mg/m^2, 30 minutes exposure
Experimental: Musca domestica Test (MUSCDO Surface Treatment & Contact Assay)
as §2
as §3, with “flies” for “mosquitoes”, “Musca domestica” for “Anopheles funestus”, “WHO-N” for “FUMOZ-R (Hunt et al., Med Vet Entomol. 2005 September; 19(3):271-5)”
as §4

Myzus persicae [8] = assay: Myzus persicae spray test; settings: in Brassica rapa, foliar, 120 h
Experimental: Myzus persicae—Spray Test
as §1
Chinese cabbage (Brassica pekinensis) leaf disks infected with all instars of the green peach aphid (Myzus persicae), are sprayed with a preparation of the active ingredient of the desired concentration.
After 5 days mortality in % is determined. 100% means all aphids have been killed and 0% means none of the aphids have been killed.

Spodoptera frugiperda = Spodoptera frugiperda spray test; settings: in Zea mays, 168 h
Summary of the method: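 Compound mixed with solvent, diluted with 1000 ppm emulsifier water to test concentrations; sprayed on maize leaf pieces; dried; larvae added; mortality (%) scored at 7 d.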

[9] = surface concentration 4 mg/m^2, 30 minutes exposure

CC(NC(=O)c1cc(F)cc(C2CC2)c1)c1ncnn1-c1ncccn1 (centres unmarked) [Example I-045]
efficacy (fleas dead or moribund) (Ctenocephalides felis [1]): 100% | efficacy (ticks dead or moribund) (Rhipicephalus sanguineus): 100% | efficacy (infertile eggs) (Boophilus microplus): 100% | efficacy (seedlings grown) (Diabrotica balteata): 100% | mortality (Nilaparvata lugens; 500 g/ha, rice plants, after 4 days): 90%

CC(c1ncnn1-c1ncccn1)N(CC1CC1)C(=O)c1cc(C(F)(F)F)n(C)n1 (centres unmarked) [Example I-025]
pest or weed control at 5 µg/cm2, 5 µg/cm2 (Ctenocephalides felis [1]): 100% | pest or weed control at 0.02 mg (Boophilus microplus): 100% | mortality at 100 ppm (Ctenocephalides felis [2]): 100% | pest or weed control at 160 µg/disc, 160 µg/well (Diabrotica balteata): 100% | mortality at 20 ppm (Myzus persicae [3]): 100% | mortality at 500 g/ha (Nezara viridula): 100% | mortality at 500 g/ha (Nilaparvata lugens): 100% | mortality at 500 g/ha (Phaedon cochleariae): 83% | mortality at 20 mg/m2 [4]: 90 to 100% | mortality at 20 mg/m2 [5]: 80 to 100% | mortality at 4 mg/m2 [6]: 85 to 100% | mortality at 20 mg/m2 [6]: 85 to 100% | mortality at 20 mg/m2 [7]: 80 to 100%

CC(c1ncnn1-c1ncccn1)N(CC1CC1)C(=O)c1c(Cl)c(C(F)(F)F)nn1C (centres unmarked) [Example I-026]
pest or weed control at 160 µg/disc, 160 µg/well (Diabrotica balteata): 100% | mortality at 500 g/ha (Phaedon cochleariae): 100%

C[C@@H](NC(=O)c1cc(C(F)(F)F)n(C)n1)c1ncnn1-c1ncccn1 [Example I-100]
pest or weed control at 160 µg/disc, 160 µg/well (Diabrotica balteata): 100% | mortality at 500 g/ha (Myzus persicae [8]): 90% | mortality at 500 g/ha (Nezara viridula): 100% | mortality at 500 g/ha (Nilaparvata lugens): 100% | mortality at 500 g/ha (Spodoptera frugiperda): 100% | mortality at 4 mg/m2 [4, 9]: 80 to 100% | mortality at 20 mg/m2 [4]: 90 to 100% | mortality at 4 mg/m2 [5, 9]: 80 to 100% | mortality at 20 mg/m2 [5]: 80 to 100% | mortality at 4 mg/m2 [6]: 85 to 100% | mortality at 20 mg/m2 [6]: 85 to 100% | mortality at 4 mg/m2 [7, 9]: 80 to 100% | mortality at 20 mg/m2 [7]: 80 to 100%

CC(c1ncnn1-c1ncccn1)N(CC1CC1)C(=O)c1cccc(Cl)c1Cl (centres unmarked) [Example I-016]
pest or weed control at 160 µg/disc, 160 µg/well (Diabrotica balteata): 100% | mortality at 500 g/ha (Nezara viridula): 100% | mortality at 500 g/ha (Phaedon cochleariae): 100%

CC(c1ncnn1-c1ncccn1)N(CC1CC1)C(=O)c1csc(Cl)c1 (centres unmarked) [Example I-021]
pest or weed control at 5 µg/cm2, 5 µg/cm2 (Ctenocephalides felis [1]): 100% | pest or weed control at 5 µg/cm2, 5 µg/cm2 (Rhipicephalus sanguineus; Rhipicephalus sanguineus, read-out: efficacy (ticks dead or moribund)): 80% | pest or weed control at 0.02 mg (Boophilus microplus): 80% | mortality at 100 ppm (Ctenocephalides felis [2]): 100%

CC(NC(=O)c1cc(Cl)cc(S(C)(=O)=O)c1)c1ncnn1-c1ncccn1 (centres unmarked) [Example I-037]
efficacy (fleas dead or moribund) (Ctenocephalides felis [1]): 100% | efficacy (ticks dead or moribund) (Rhipicephalus sanguineus): 80% | efficacy (infertile eggs) (Boophilus microplus): 100% | efficacy (seedlings grown) (Diabrotica balteata): 100%
